According to publication PMC4358968, “Lipid-Free Antigen B Subunits from Echinococcus granulosus: Oligomerization, Ligand Binding, and Membrane Interaction Properties” (PLoS Neglected Tropical Diseases, 2015):

Key:
[1] = target: T1, EgAgB8/3 (antigen B subunit 3); experiment: fluorimetric titration of 12-AS (direct probe binding, TBS); set-up: species or system Echinococcus granulosus
T1 construct: gene EgAgB3; recombinant lipid-free (RP-HPLC delipidated) EgAgB8/3 mature subunit, GST fusion cleaved with thrombin; GenBank AAK64236

[2] = target: T2, EgAgB8/2 (antigen B subunit 2) (Echinococcus granulosus, UniProt Q27275); experiment: fluorimetric titration of 12-AS (direct probe binding, […]°C, TBS)
T2 construct: gene AgB2; recombinant lipid-free (RP-HPLC delipidated) EgAgB8/2 mature subunit, GST fusion cleaved with thrombin; GenBank AAC47169

[3] = target: recombinant EgAgB8/2 subunit of Echinococcus granulosus antigen B (Echinococcus granulosus); experiment: SEC; 100 uL of lipid-free EgAgB8/2 (324 uM) or EgAgB8/3 (320 uM) loaded separately on Superdex 200 HR 10/30 in PBS, 0.5 mL/min; apparent molecular weight against BSA, carbonic anhydrase and cytochrome c
[4] = target: recombinant EgAgB8/3 subunit of Echinococcus granulosus antigen B (Echinococcus granulosus); experiment: as above

With `CCCCCCC(CCCCCCCCCCC(=O)O)OC(=O)c1c2ccccc2cc2ccccc12` (stereo not shown) [12-AS, 12-(9-anthroyloxy) stearic acid] the Kd [1] was 340 ± 20 nM and the Kd [2] was 160 ± 90 nM.
Compound “recombinant EgAgB8/2 subunit of Echinococcus granulosus antigen B (natural protein)” has a stoichiometry N [3] of 7 to 8 subunits.
“recombinant EgAgB8/3 subunit of Echinococcus granulosus antigen B (natural protein)” showed a stoichiometry N [4] of 4 to 5 subunits.
